# Source: PMC10586543 (Advanced functional materials, 2023)
# What was measured:
# human α-thrombin = human α-thrombin (Homo sapiens, UniProt P00734); assay: In vitro specificity reaction with off-target protease; conditions: free peptide; 13.5 nM human α-thrombin; TCNB buffer; 37 °C, 1 h; fluorescence (Figure S2)
# human recombinant MMP-9 = human recombinant MMP-9 (Homo sapiens, UniProt P14780); assay: as above; conditions: free peptide; 15 nM human recombinant MMP-9; TCNB buffer; 37 °C, 1 h; fluorescence (Figure S2)
# Sequence of human recombinant MMP-9 (P14780 107-444 limits assumed): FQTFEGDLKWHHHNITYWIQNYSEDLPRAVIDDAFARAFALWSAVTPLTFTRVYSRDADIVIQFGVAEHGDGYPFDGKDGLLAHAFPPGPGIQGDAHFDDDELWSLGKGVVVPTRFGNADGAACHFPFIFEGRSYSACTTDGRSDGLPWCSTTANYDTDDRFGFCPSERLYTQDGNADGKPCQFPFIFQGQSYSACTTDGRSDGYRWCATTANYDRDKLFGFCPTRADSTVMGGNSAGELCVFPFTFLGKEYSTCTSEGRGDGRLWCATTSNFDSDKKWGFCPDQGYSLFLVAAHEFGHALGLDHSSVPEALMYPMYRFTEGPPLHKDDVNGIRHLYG
substance,measurement,setting,value
Biotin-GGSGG-K(5FAM)-QEVYGAMP-K(CPQ2)-C-NH2 [calpain substrate peptide],activation after incubation with α-thrombin,human α-thrombin,did not activate
same,activation after incubation with MMP9,human recombinant MMP-9,did not activate
